Experimental data: article PMC6037852, “Design of Diarylheptanoid Derivatives as Dual Inhibitors Against Class IIa Histone Deacetylase and β-amyloid Aggregation” (Frontiers in Pharmacology, 2018)

Key:
HDAC7 = target: T1, HDAC7 (Homo sapiens, UniProt Q8WUI4); experiment: HDAC fluorometric activity assay, HDAC7; settings: IC50 Class IIa HDAC7, fluorogenic HDAC class IIa substrate 10 μM
T1 sequence (Q8WUI4 1-952): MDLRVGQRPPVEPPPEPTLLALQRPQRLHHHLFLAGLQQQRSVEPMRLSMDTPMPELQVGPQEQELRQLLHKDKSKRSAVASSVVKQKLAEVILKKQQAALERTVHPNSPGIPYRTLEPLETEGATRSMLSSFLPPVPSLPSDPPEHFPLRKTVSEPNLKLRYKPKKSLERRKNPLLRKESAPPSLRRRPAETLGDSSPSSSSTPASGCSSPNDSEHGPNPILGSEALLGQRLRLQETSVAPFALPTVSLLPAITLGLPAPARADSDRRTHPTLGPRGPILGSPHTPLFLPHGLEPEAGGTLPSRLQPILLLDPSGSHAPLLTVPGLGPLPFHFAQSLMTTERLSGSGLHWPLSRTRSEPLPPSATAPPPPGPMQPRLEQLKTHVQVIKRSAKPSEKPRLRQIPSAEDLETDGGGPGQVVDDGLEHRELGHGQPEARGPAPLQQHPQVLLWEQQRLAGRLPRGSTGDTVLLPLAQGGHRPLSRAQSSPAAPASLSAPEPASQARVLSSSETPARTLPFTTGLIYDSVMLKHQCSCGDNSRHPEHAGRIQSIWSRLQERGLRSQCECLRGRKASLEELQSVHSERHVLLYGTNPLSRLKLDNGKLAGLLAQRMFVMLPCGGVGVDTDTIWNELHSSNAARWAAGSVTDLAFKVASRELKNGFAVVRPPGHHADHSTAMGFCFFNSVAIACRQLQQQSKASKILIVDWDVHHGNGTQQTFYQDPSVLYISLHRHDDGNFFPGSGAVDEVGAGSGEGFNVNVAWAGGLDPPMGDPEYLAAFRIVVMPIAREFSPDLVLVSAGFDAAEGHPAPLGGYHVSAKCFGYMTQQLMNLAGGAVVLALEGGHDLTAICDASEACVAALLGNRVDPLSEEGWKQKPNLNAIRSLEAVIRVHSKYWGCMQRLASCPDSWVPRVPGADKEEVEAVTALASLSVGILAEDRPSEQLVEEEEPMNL
Description: Enzyme, inhibitors and substrate were diluted with HDAC buffer (15 mM Tris-HCl pH 8.1, 0.25 mM EDTA, 250 mM NaCl, 10% v:v glycerol). Briefly, 10 μL diluted HDAC, i.e., HeLa nuclear extract (Enzo), HDAC6 (BPS), HDAC4, HDAC5 (BPS), HDAC7 (BPS) and HDAC9 (BPS), as well as 50 μL of testing compounds at different concentrations were added to each well of a 96-well microtiter plate and pre-incubated at 30°C for 5 min. […] The fluorescence in wells without test compounds (0.1% DMSO, negative control) was set as 100% enzymatic activity and the fluorescence in wells with enzyme eliminated was set as 0% enzymatic activity. The fluorescence ratio of test compounds to negative control was defined as percentage of remaining enzyme activity. The IC50 values were calculated by linear regression of the data. All experiments were performed in triplicate.

Aβ1-42 = target: T2, Aβ1-42 (Homo sapiens, UniProt P05067); experiment: Inhibition of Aβ1-42 self-aggregation, thioflavin-T (ThT) fluorescence assay; type: biochemical; settings: 24 h; for IC50: read-out: Beta-Amyloid Aggregation IC50; for inhibition at 10 µM: single concentration of 10 μM, read-out: Beta-Amyloid Aggregation Inhibition (%)
T2 construct: Aβ1-42 peptides were purchased from Kelowna International Scientific Inc; purchased Kelowna International Scientific Inc
Description: Inhibition of Aβ1-42 self-aggregation was measured by thioflavin-T (ThT) fluorescence assay ([Hudson et al., 2009]). Aβ1-42 peptides were purchased from Kelowna International Scientific Inc. To avoid Aβ1-42 self-aggregation before the start of the experiment, Aβ1-42 peptides were dissolved in hexafluoroisopropanol (HFIP) to a concentration of 1 mM. The clear solution containing the dissolved peptide was then aliquoted in micro centrifuge tube. The solution was evaporated under vacuum to remove HFIP to give monomeric Aβ1-42. The monomeric Aβ1-42 was dissolved in NaOH(aq) (60 mM) to give a stock solution (1 mM). The Aβ1-42 stock solution was diluted with 50 mM phosphate buffer (containing 0.15 M NaCl, pH 7.4) before use. Fresh ThT stock solution was prepared by dissolving ThT (Sigma, T3516) in phosphate buffer and filtrated through […] Nylon syringe filter. The ThT stock solution and 400 mM ethylenediaminetetraacetic acid (EDTA) were diluted into the phosphate buffer to generate the working solution as background. A mixture of working solution (ThT final concentration: 10 μM), Aβ1-42 stock solution (Aβ1-42 final concentration: 10 μM) and the tested compounds were incubated on BioShake iQ ThermoMixer (37°C, 700 rpm) for 24 h. Fluorescence was measured by Victor 2X microplate spectrophotometer (excitation λ = 440 nm, emission λ = 486 nm), and adapted for 96-well microtiter plates. The fluorescence intensities were recorded and the percent inhibition due to the presence of the inhibitors were calculated by the following formula: (1 - IFi/IFc) × 100% where IFi and IFc were the fluorescence intensities obtained for Aβ1-42 in the presence and in the absence of inhibitors after subtracting the background, respectively. The IC50 values were calculated by the linear regression model of the data. All experiments were performed in triplicate.

SH-SY5Y cells [1] = experiment: Neuroprotection against H2O2-induced neurotoxicity on SH-SY5Y cells, MTT assay; type: cell-based; settings: Homo sapiens, compound 40 μM, 500 μM H2O2, 3 h, percentage of control, H2O2 alone 34.6%, read-out: Cell viability after H2O2 exposure
Description: (§1) SH-SY5Y cells were kindly provided by Professor Zhi-Hong Wen (National Sun Yat-sen University) and cultured in DMEM/F12 (Gibco, Grand Island, NY, United States) supplemented with 10% heat-inactivated fetal bovine serum and penicillin (100 U/ml)/streptomycin (100 μg/ml) (Invitrogen, Carlsbad, CA, United States) at 37°C in an atmosphere of 5% CO2.
H2O2-induced neurotoxicity on SH-SY5Y cells was used to evaluate the neuroprotective effect ([Rafatian et al., 2012]; [Omar et al., 2017]). Briefly, a density of 2 × 10^4 SH-SY5Y cells were seeded per well in 96-well plates. After 24 h of incubation, the medium was replaced with serum free medium containing H2O2 at a concentration of 500 μM and treated with different concentrations of compounds (40, 20, and 10 μM). SH-SY5Y cells were also cultured without any treatment as control group and results were indicated by percentage of control. After 3 h, cell viability was performed by MTT assay. The cells were treated with MTT (5 mg/ml in PBS) for 4 h at 37°C. The formazan crystals were generated by viable mitochondrial succinate dehydrogenase from MTT. The supernatant was then aspirated off and the formazan crystals were dissolved with DMSO. Absorbance at 570 nm was determined by Tecan Sunrise microplate reader. The trypan blue exclusion test was also used to evaluate the neuroprotection.

SH-SY5Y cells [2] = experiment: Cytotoxicity effect on SH-SY5Y cells, alamar blue cell viability assay; type: cell-based, human; settings: 40 μM, 24 h
Description: as §1
Cell viability was assessed using the alamar blue (7-hydroxy-10-oxidophenoxazin-10-ium-3-one) cell viability assay in 6 replicates as described previously ([Feng et al., 2016]). Briefly, 5 × 10^3 cells/well were seeded in 96-well flat-bottomed plates; 24 h later, cells were treated with compounds or DMSO as control. After 24 h of incubation, the medium was removed, 100 μL medium containing 10 μL of alamar blue was added, and cells were incubated in the 5% CO2 incubator at 37°C for 4 h. Absorbance at 570 nm was determined by Synergy HT microplate reader. The results were averaged over three different independent experiments. The cell viability was also evaluated by trypan blue exclusion test.

T2 sequence (P05067 672-713 limits assumed): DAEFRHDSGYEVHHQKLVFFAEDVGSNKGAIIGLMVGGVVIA

| SMILES | IC50 (HDAC7) | IC50 (Aβ1-42) | inhibition at 10 µM (Aβ1-42) | viability at 40 µM (SH-SY5Y cells [1]) | Cytotoxicity to SH-SY5Y cells (SH-SY5Y cells [2]) |
| --- | --- | --- | --- | --- | --- |
| O=C(/C=C/c1ccc(O)cc1)CCCCc1ccccc1 [Compound 4b] | > 40 µM | > 10 µM | 28.7 ± 6.3% |  |  |
| O=C(/C=C/c1ccc(O)c(Cl)c1)CCCCc1ccccc1 [Compound 4g] | > 40 µM | > 10 µM | 27.8 ± 7.1% |  |  |
| COc1cc(CCC(=O)CCCCc2ccccc2)ccc1O [Compound 5i] | > 40 µM | > 10 µM | 4.6 ± 11.7% |  |  |
| COc1cc(/C=C/C(=O)CCCCc2ccccc2)ccc1O [Compound 4k] | > 40 µM | > 10 µM | 23.1 ± 6.4% |  |  |
| O=C(CCCCc1ccccc1)CCc1ccc(O)c(Br)c1 [Compound 5h] | > 40 µM | > 10 µM | 1 ± 3% |  |  |
| O=C(CCCCc1ccccc1)CCc1ccc(O)c(F)c1 [Compound 5f] | > 40 µM | > 10 µM | 22.1 ± 11.1% |  |  |
| O=C(CCCCc1ccccc1)CCc1ccc(O)cc1 [Compound 5b] | > 40 µM | > 10 µM | 30.4 ± 1% |  |  |
| O=C(/C=C/c1cccc(O)c1)CCCCc1ccccc1 [Compound 4d] | > 40 µM | > 10 µM | 0.7 ± 1.5% |  |  |
| O=C(/C=C/c1ccccc1)CCCCc1ccccc1 [Compound 4a] | > 40 µM | > 10 µM | 11.9 ± 1% |  |  |
| O=C(/C=C/c1ccc(O)c(F)c1)CCCCc1ccccc1 [Compound 4f] | > 40 µM | > 10 µM | 34.9 ± 9.2% |  |  |
| O=C(/C=C/c1ccc(O)c(O)c1)Cc1ccccc1 [Compound 7b] | 15.4 ± 3 µM | 2.1 ± 0.2 µM | 79.4 ± 2.6% |  |  |
| O=C(CCCCc1ccccc1)CCc1cccc(O)c1 [Compound 5d] | > 40 µM | > 10 µM | -22.1 ± 2% |  |  |
| O=C(CCCCc1ccccc1)CCc1ccccc1 [Compound 5a] | > 40 µM | > 10 µM | 14 ± 3% |  |  |
| O=C(CCCCc1ccccc1)CCc1ccc(O)c(Cl)c1 [Compound 5g] | 30.7 ± 0.7 µM | > 10 µM | 17.8 ± 2.8% |  |  |
| O=C(/C=C/c1ccc(O)c([N+](=O)[O-])c1)CCCCc1ccccc1 [Compound 4i] | 32.7 ± 2.1 µM | > 10 µM | 49 ± 2.9% |  |  |
| O=C(/C=C/c1ccc(O)c(Br)c1)CCCCc1ccccc1 [Compound 4h] | > 40 µM | > 10 µM | 28.1 ± 2.1% |  |  |
| O=C(CCc1ccc(O)c(O)c1)Cc1ccccc1 [Compound 8b] | 13.7 ± 0.7 µM | 8.1 ± 1.2 µM | 68.6 ± 4.1% |  |  |

Now from value to compound, other results behind:

| IC50 (HDAC7) | IC50 (Aβ1-42) | inhibition at 10 µM (Aβ1-42) | SMILES | viability at 40 µM (SH-SY5Y cells [1]) | Cytotoxicity to SH-SY5Y cells (SH-SY5Y cells [2]) |
| --- | --- | --- | --- | --- | --- |
| 8.6 ± 1 µM | 3.4 ± 0.6 µM | 91.7 ± 2.5% | O=C(/C=C/c1cccc(O)c1O)CCCCc1ccccc1 [Compound 4e] |  |  |
| 8.9 ± 0.4 µM | 8 ± 1.6 µM | 71.3 ± 3.8% | O=C(CCc1ccccc1)CCc1ccc(O)c(O)c1 [Compound 8c] |  |  |
| 9.4 ± 0.2 µM | 3.1 ± 0.3 µM | 74 ± 9.5% | O=C(/C=C/c1ccc(O)c(O)c1)CCCc1ccccc1 [Compound 7d] |  |  |
| 8.4 ± 0.3 µM | 6.1 ± 1.3 µM | 76.2 ± 2.7% | O=C(/C=C/c1ccc(O)c(O)c1)CCCCc1ccccc1 [Compound 4c] |  |  |
| 7.4 ± 1.6 µM | 8.5 ± 0.2 µM | 59 ± 5.8% | O=C(CCCc1ccccc1)CCc1ccc(O)c(O)c1 [Compound 8d] |  |  |
| 12 ± 1 µM | 8.6 ± 1.1 µM | 66.4 ± 1% | O=C(CCc1ccc(O)c(O)c1)c1ccccc1 [Compound 8a] |  |  |
| 13.6 ± 1.1 µM | 3.4 ± 0.4 µM | 83.7 ± 0.8% | O=C(/C=C/c1ccc(O)c(O)c1)CCc1ccccc1 [Compound 7c] |  |  |
| 4.3 ± 0.5 µM | 5.8 ± 0.2 µM | 67.8 ± 3.4% | O=C(CCCCc1ccccc1)CCc1ccc(O)c(O)c1 [Compound 5c] | 61.3% | did not show significant cytotoxicity |
| 9.6 ± 0.2 µM | 2.3 ± 0.2 µM | 83.1 ± 1.9% | O=C(/C=C/c1ccc(O)c(O)c1)c1ccccc1 [Compound 7a] |  |  |
| 3.8 ± 0.4 µM | 3.6 ± 1 µM | 78.7 ± 6.2% | O=C(/C=C/c1cc(O)c(O)c(O)c1)CCCCc1ccccc1 [Compound 4j] | 88.3% | did not show significant cytotoxicity |
| 8.7 ± 0.7 µM | 6 ± 0.9 µM | 65.9 ± 0.2% | O=C(CCCCc1ccccc1)CCc1cccc(O)c1O [Compound 5e] | 58.8% | did not show significant cytotoxicity |
